From US20100093872A1, “STABLE AQUEOUS FORMULATIONS OF WATER INSOLUBLE OR POORLY SOLUBLE DRUGS” (Erimos Pharmaceuticals LLC, priority 2008, published 2010)
≈ marks a conversion by molar mass, not a printed value. Like-named read-outs stand apart in the source and are kept apart here.

Legend:
[1] = cited from earlier work
[2] = Achievable terameprocol concentration in HPβCD formulations without co-solvent (bench-scale development); format: physicochemical
Protocol: The inventors of the present invention have made the surprising discovery that terameprocol can be formulated in cyclodextrins without the need for elaborate chemical solvent matrices and that lead to increases in the solubility of water insoluble drugs through the formation of a stable inclusion complex. […] Details of this will be discussed later.
Bench-top (10 mL) to 5 L scale development studies were performed to remove PEG 300 from terameprocol/HPβCD formulations. Conclusions from the bench scale experiments were (a) 7 mg/mL is the maximum achievable terameprocol concentration in an IV formulation containing 30-40% HPβCD (b) incorporating the drug at high temperatures (80° C. or greater) is an important step in forming the inclusion complex (c) high mechanical energy must be provided when cooling the complex to approximately ambient condition once formed. There were differences in equipment used at the 10 mL vs. 5 L scale. The 10 mL scale utilized glass beakers with a sonicator for incorporation, while the 5 L experiments were conducted with a 10 L stainless steel jacketed vessel equipped with a recirculating heating bath, overhead air powered blade mixer and an in-line homogenizer.

physchem [3] = format: physicochemical; conditions: organic solvent or mixture, thermodynamic from solid
Protocol: The solubility of terameprocol was tested in various solvents and dispersed systems. An excess of the solid API (20-50 mg) was shaken with 1 mL of a given solvent overnight (˜16 hr) at room temperature on a gyratory shaker at maximum speed. The samples were filtered through 0.45 μm PVDF filter. The filtrates were diluted to the working linear range (0.06-0.1 mg/mL) of the UV-Vis method appropriately in acetonitrile and analyzed for terameprocol concentration using a UV-Vis spectrophotometer. The equation of the standard curve was y=16.70x+0.016 with a R^2=0.999 monitored at 281 nm.
Solubility in PEG 300 increased with increasing temperature with the value being greater than 600 mg/mL at 95° C.

[4] = Accelerated stability of 60 L lot terameprocol/HPβCD samples; format: physicochemical; conditions: 40° C/75% RH for 1 month; 60 L lots; no pH adjustment with/without homogenization, or pH 7 without homogenizer, with/without autoclaving
Protocol: The 5 L terameprocol formulation process was scaled up to 60 L lots. The 60 L lots were conducted to (a) evaluate the criticality of using an homogenizer to promote complexation of the terameprocol and HPβCD (b) evaluate the stability of the terameprocol/HPβCD complex upon pH adjustment after compounding using NaOH and/or HCl (c) investigate the stability after autoclaving up to 30 minutes at 121° C. of the non pH adjusted, pH adjusted, homogenized, and non-homogenized terameprocol samples (d) optimize the 5 L formulation process to 60 L in order to support a clinical scale-up to 373 L.
It was determined that with proper tank design using an aggressive mixer introduced enough energy into the system where the homogenizer may not be critical for complexation. Samples of terameprocol that had 1) no pH adjustment with and without homogenization and 2) pH adjusted to 7 with no homogenizer and with and without autoclaving were stable at the accelerated condition of 40° C/75% RH for 1 month.

[5] = Stability of terameprocol/HPβCD 5 L formulation with NaCl and after autoclaving (precipitation); format: physicochemical
Protocol: The 5 L experiments were conducted to (a) explore the acceptable temperature range indicated in ‘b’ above required for forming terameprocol cyclodextrin complexes, (b) evaluate the stability of terameprocol/HPβCD upon autoclaving: 15 minutes vs. 30 minutes at 121° C., (c) evaluate the compatibility of terameprocol/HPβCD with 0.5% (w/v) sodium chloride (NaCl), and (d) develop a process which could be scaled to the next engineering size of 60 L. The acceptable temperature required for complexation of terameprocol and cyclodextrin (HPβCD) was determined to be above the melting point of terameprocol (>104° C.). The resulting terameprocol/HPβCD formulation was stable for 4 weeks at room temperature (RT), 4 weeks under refrigerated conditions, and 2 weeks under accelerated conditions (40° C.) for all sample types evaluated: non-autoclaved, autoclaved up to 30 minutes, and upon spiking with NaCl as shown in Table 2. The compatibility of terameprocol/HPβCD with NaCl supports flushing of the IV lines with 0.9% Saline to keep lines patent if required.

physchem [6] = format: physicochemical; conditions: water
Protocol: Terameprocol is an extremely difficult drug to formulate because it is effectively insoluble in all of the commonly used aqueous media used for intravenous delivery of pharmaceuticals. Terameprocol's solubility in an aqueous solvent, at all pH's in water, 0.9% saline and 5% dextrose is <0.01 mg/mL, a level below the limit of quantitation of the RP-HPLC assay used for evaluation. In order to develop a formulation suitable for clinical use, it is preferred that the solubility of the drug be equal to or exceed 5 mg/mL. At concentrations below this limit, large volumes of solvent are required to deliver the drug. The extremely low solubility of terameprocol presents major formulation challenges using conventional formulation techniques such as the use of organic solvents, surfactants or extremes of pH. These conventional formulation approaches would require the administration of large concentrations of co-solvents and may render the solution viscous and/or difficult to handle during reconstitution in the bedside or pharmacy. […] The use of conventional approaches have met with limited success when formulating terameprocol for intravenous parenteral administration.

[7] = Chemical stability of terameprocol under stress (base, acid, heat, light, oxidizer, water); format: physicochemical; conditions: subjected to base, oxidizer, and water
Description: Terameprocol is a small molecule with a molecular weight of 358.5 g/mol; it is hydrophobic, and non-ionic.

[8] = Determination of optimum temperature requirement (microscopic images of in-process samples); format: physicochemical; conditions: for crystals in in-process sample (microscopic image): HPβCD solution, homogenized
Protocol: A solution of HPβCD was prepared in a 5 L jacketed vessel and heated to aid in dissolution. Terameprocol was added slowly to the HPβCD solution. The in-line homogenizer was utilized and the temperature was maintained at 40° C. for 2 hours. […] The temperature was increased to 60° C. with homogenization and held for one hour. […] The temperature was increased to 80° C. under homogenization for 2 hours. It was noted that due to heating in a closed vessel, the system was slightly pressurized due to the increase in operating temperature. […] The experiment was repeated but the system was taken to temperature above the melting point (>104° C.) with homogenization in the same closed vessel. The vessel was then cooled and samples taken. […] It was concluded the optimum temperature requirement was that above the drug's melting point.

[9] = 0.5% w/v NaCl, autoclaved 15 min at 121° C.
[10] = 0.5% w/v NaCl, autoclaved 30 min at 121° C.
[11] = Unspiked, autoclaved 15 min at 121° C.
[12] = Unspiked, autoclaved 30 min at 121° C.

CC(O)COC[C@H]1O[C@@H]2O[C@H]3[C@H](O)[C@@H](O)[C@@H](O[C@H]4[C@H](O)[C@@H](O)[C@@H](O[C@H]5[C@H](O)[C@@H](O)[C@@H](O[C@H]6[C@H](O)[C@@H](O)[C@@H](O[C@H]7[C@H](O)[C@@H](O)[C@@H](O[C@H]8[C@H](O)[C@@H](O)[C@@H](O[C@H]1[C@H](O)[C@H]2O)O[C@@H]8COCC(C)O)O[C@@H]7COCC(C)O)O[C@@H]6COCC(C)O)O[C@@H]5COCC(C)O)O[C@@H]4COCC(C)O)O[C@@H]3COCC(C)O (stereo partly drawn) [HPβCD, hydroxypropyl beta-cyclodextrin]
stability during sterilization ([1]; 121° C. for 15 minutes): stable | hydrolysis ([1]; extreme acidic conditions of pH 2 at 60° C.): slight hydrolysis | hydrolysis ([1]; pH 4, at 40° C. after 24 hrs): No significant hydrolysis

COc1ccc(C[C@@H](C)[C@@H](C)Cc2ccc(OC)c(OC)c2)cc1OC [terameprocol, tetra-o-methyl nordihydroguaiaretic acid]
maximum achievable terameprocol concentration ([2]; IV formulation containing 30-40% HPβCD, no PEG 300, bench scale): 7 mg/mL | concentration obtained on mixing with cyclodextrin in water without solvent ([2]; all temperatures below the melting point, or precipitation): ≤ 7000 µg/mL | solubility at 16 h (physchem [3]; 25 °C, solubility in pharmaceutically relevant solvents): < 10 mg/mL | solubility (physchem [3]; 40 °C): 10.1 mg/mL (≈ 28.2 mM) | solubility (physchem [3]; 80 °C): > 400 mg/mL | solubility (physchem [3]; 95 °C): > 600 mg/mL | formulation stability [4]: stable | Precipitation 2-8° C. (4-weeks) [5, 9]: No | Precipitation 40° C. (2-weeks) [5, 9]: No | Precipitation RT (4-weeks) [5, 9]: No | Terameprocol [5, 9]: 6.03 mg/mL | Precipitation 2-8° C. (4-weeks) [5, 10]: No | Precipitation 40° C. (2-weeks) [5, 10]: No | Precipitation RT (4-weeks) [5, 10]: No | Terameprocol [5, 10]: 5.77 mg/mL | Precipitation 2-8° C. (4-weeks) ([5]; 0.5% w/v NaCl, not autoclaved): No | Precipitation 40° C. (2-weeks) ([5]; 0.5% w/v NaCl, not autoclaved): No | Precipitation RT (4-weeks) ([5]; 0.5% w/v NaCl, not autoclaved): No | Terameprocol ([5]; 0.5% w/v NaCl, not autoclaved): 5.89 mg/mL | Precipitation 2-8° C. (4-weeks) [5, 11]: No | Precipitation 40° C. (2-weeks) [5, 11]: No | Precipitation RT (4-weeks) [5, 11]: No | Terameprocol [5, 11]: 5.76 mg/mL | Precipitation 2-8° C. (4-weeks) [5, 12]: No | Precipitation 40° C. (2-weeks) [5, 12]: No | Precipitation RT (4-weeks) [5, 12]: No | Terameprocol [5, 12]: 5.97 mg/mL | Precipitation 2-8° C. (4-weeks) ([5]; Unspiked, not autoclaved): No | Precipitation 40° C. (2-weeks) ([5]; Unspiked, not autoclaved): No | Precipitation RT (4-weeks) ([5]; Unspiked, not autoclaved): No | Terameprocol ([5]; Unspiked, not autoclaved): 5.80 mg/mL | solubility (physchem [6]): < 0.01 mg/mL | stability / degradation [7]: does not degrade | crystals in in-process sample (microscopic image) ([8]; 40° C. for 2 hours (FIG. 6-A)): numerous terameprocol crystals present | crystals in in-process sample (microscopic image) ([8]; 60° C. for one hour (FIG. 6-B)): presence of crystals was still evident | crystals in in-process sample (microscopic image) ([8]; 80° C. for 2 hours (FIG. 6-C)): significant reduction in crystal formation | crystal formation ([8]; processed above the melting point (>104° C.) with homogenization, immediately or after 4 weeks): no crystal formation
